How the values were obtained:
Format in all cases: physicochemical
[1] = Degree of coloration (transmittance at 430 nm) when a heat load at 60° C. was applied; conditions: for degree of coloration, transmittance T % 430 nm: solution at 100 g/L in terms of anhydrate, 1 cm
Description: Further, with respect to the crystal of 6SL sodium salt 4.6-hydrate and known amorphous 6SL sodium salt, the degree of coloration when a heat load at 60° C. was applied was compared, and the results are shown in Table 4.
The degree of coloration is expressed by transmittance T % 430 nm 100×10^−A (A=Abs: 430 nm, 1 cm), which was obtained by dissolving each substance at 100 g/L in terms of an anhydrate and performing measurement for the solution.

[2] = Hygroscopicity: weight change on storage at 30° C., relative humidity 80%
Description: The hygroscopicity of the obtained crystal of 6SL sodium salt 4.6-hydrate and that of a 6SL sodium reagent (amorphous salt, manufactured by Carbosynth Limited) were compared under the following conditions.
Storage condition: 30° C., relative humidity: 80% (apparatus: THE051FA, manufactured by Advantec Toyo Kaisha Ltd.).
Measurement method: After about 100 mg of a sample was weighed with a precision balance, the sample was packed in a glass container and stored under the above-mentioned conditions. Thereafter, the sample was weighed again, and the weight change ratio was calculated.
Incidentally, the weight of the sample at each elapsed time was measured by assuming the weight of each sample at the start of the test to be 100%.

[3] = pH of aqueous solution of the crystal; conditions: aqueous solution at 100 g/L in terms of crystal of 6SL sodium salt 4.6-hydrate
Description: As for the pH, an aqueous solution at 100 g/L in terms of crystal of 6SL sodium salt 4.6-hydrate was measured.

| Compound | degree of coloration, transmittance T % 430 nm ([1]; elapsed time 0 days, sodium salt) [%] | degree of coloration, transmittance T % 430 nm ([1]; elapsed time 3 days, sodium salt) [%] | degree of coloration, transmittance T % 430 nm ([1]; elapsed time 6 days, sodium salt) [%] | weight of sample (weight at start of test = 100%) ([2]; elapsed time 0.5 hours, sodium salt) [%] | weight of sample (weight at start of test = 100%) ([2]; elapsed time 2.5 hours, sodium salt) [%] | weight of sample (weight at start of test = 100%) ([2]; elapsed time 8 hours, sodium salt) [%] | weight of sample (weight at start of test = 100%) ([2]; elapsed time 20 hours, sodium salt) [%] | degree of coloration during storage (in words) ([1]; compared with known amorphous 6SL sodium salt) | degree of coloration, transmittance T % 430 nm ([1]; elapsed time 0 days) [%] | degree of coloration, transmittance T % 430 nm ([1]; elapsed time 3 days) [%] | degree of coloration, transmittance T % 430 nm ([1]; elapsed time 6 days) [%] | hygroscopicity (in words) ([2]; compared with amorphous salt) | weight of sample (weight at start of test = 100%) ([2]; elapsed time 0 hours (start, assumed 100%)) [%] | weight of sample (weight at start of test = 100%) ([2]; elapsed time 0.5 hours) [%] | weight of sample (weight at start of test = 100%) ([2]; elapsed time 2.5 hours) [%] | weight of sample (weight at start of test = 100%) ([2]; elapsed time 8 hours) [%] | weight of sample (weight at start of test = 100%) ([2]; elapsed time 20 hours) [%] | pH [3] |
| --- | --- | --- | --- | --- | --- | --- | --- | --- | --- | --- | --- | --- | --- | --- | --- | --- | --- | --- |
| CC(=O)NC1C(O)CC(OCC2OC(OC3C(CO)OC(O)C(O)C3O)C(O)C(O)C2O)(C(=O)[O-])OC1C(O)C(O)CO.[Na+] (stereo not drawn) [Amorphous salt, 6SL sodium salt, reference compound] | 99.4 | 99.0 | 98.8 | 114.4 | 119.6 | 122.9 | 124.1 |  |  |  |  |  |  |  |  |  |  |  |
| CC(=O)NC1C(O)CC(OCC2OC(OC3C(CO)OC(O)C(O)C3O)C(O)C(O)C2O)(C(=O)[O-])OC1C(O)C(O)CO.[Na+] (stereo not drawn) [Crystal of sodium salt, 6SL sodium salt 4.6-hydrate] |  |  |  |  |  |  |  | lower than that of known amorphous 6SL sodium salt | 99.9 | 99.8 | 99.8 | lower hygroscopicity than the amorphous salt | 100.0 | 98.8 | 98.6 | 98.4 | 98.7 | 6.23 |

— patent US10745432B2, “Crystal of 6′-sialyllactose sodium salt, and process for producing same” (KYOWA HAKKO BIO CO., LTD., priority 2015, dated 2020)
